Results from BigSolDB 2.1.

O=[N+]([O-])c1cn[nH]c1[N+](=O)[O-]
solubility (mole fraction)
Conditions | 283.15 K | 288.15 K | 293.15 K | 298.15 K | 303.15 K | 308.15 K | 313.15 K | 318.15 K | 323.15 K
in 2-butanone | 0.429 | 0.45 | 0.476 | 0.498 | 0.525 | 0.554 | 0.578 | 0.602 | 0.645
in THF | 0.51 | 0.525 | 0.598 | 0.631 | 0.684 | 0.735 | 0.792 | 0.837 | 0.886
in acetonitrile | 0.0745 | 0.0772 | 0.085 | 0.0912 | 0.0968 | 0.105 | 0.11 | 0.12 | 0.133
in chloroform | 0.00071 | 0.00094 | 0.00113 | 0.00152 | 0.00211 | 0.00277 | 0.0035 | 0.00476 | 0.00693
in epichlorohydrin | 0.0361 | 0.0395 | 0.0422 | 0.0467 | 0.0498 | 0.0536 | 0.0582 | 0.0634 | 0.0715
in ethyl acetate | 0.0671 | 0.0791 | 0.0913 | 0.103 | 0.125 | 0.146 | 0.163 | 0.193 | 0.224
in isobutanol | 0.234 | 0.264 | 0.265 | 0.329 | 0.355 | 0.391 | 0.438 | 0.486 | 0.539
in isopentanol | 0.228 | 0.258 | 0.29 | 0.315 | 0.351 | 0.376 | 0.408 | 0.46 | 0.508
in n-pentanol | 0.266 | 0.315 | 0.365 | 0.412 | 0.465 | 0.513 | 0.552 | 0.631 | 0.679
in n-propanol | 0.317 | 0.361 | 0.412 | 0.468 | 0.516 | 0.567 | 0.612 | 0.7 | 0.803
in water | 0.002 | 0.0032 | 0.00414 | 0.00529 | 0.00738 | 0.00924 | 0.0111 | 0.0136 | 0.0169
